# Measured values from patent US20210198319A1, “CYTOTOXIC PEPTIDES AND CONJUGATES THEREOF” (AEBI LTD., priority 2017, published 2021).
# No end group written: not given here.
# What was measured:
# cells = assay: Toxicity to cells of library peptides; type: cell-based; conditions: cyclic peptide library, after optimization process
# [1] = biological target: human eukaryotic elongation factor 2 (eEF2) (Homo sapiens, UniProt P13639); assay: Cyclic peptide library tested for binding to eEF2; conditions: after optimization process
# Text: Using the technique described in WO 2007/010525, a library of cyclic peptides was generated and tested for binding to human eukaryotic elongation factor 2 (eEF2).
substance,measurement,setting,value
"Cys-Ser-Ala-Arg-Trp-Gly-Pro-Ile-Met-Pro-Trp-Cys (CSARWGPIMPWC; also: cyclic, ring type not given here) [GW2]",toxicity to cells (rank among library peptides),cells,most potent peptide
same,binding to eEF2 (rank among library peptides),[1],most potent peptide
